Residues, ends and D or L forms follow the SMILES beside them.
What was measured:
[1] = Trolox Equivalent Antioxidant Capacity (TEAC), ABTS Decolorization Assay; assay type: biochemical
Procedure: As positive controls of the assay, ascorbic acid 2-glucoside (hereinafter, AA-2G) and magnesium ascorbyl phosphate (hereinafter, MAP) were tested.
TEAC assay was used in this case. Said assay measures the antioxidant capacity of a given substance, as compared to the standard, Trolox, an analogue of Vitamin E.
Antioxidant capacity was measured using the ABTS Decolorization Assay. In this assay, the pre-formed radical monocation of 2,2′-azinobis-(3-ethylbenzothiazoline-6-sulfonic acid) (ABTS*+) was generated by oxidation of ABTS with potassium persulfate and was reduced in the presence of antioxidants (Ac-SEQ ID NO: 1-NH2, Ac-SEQ ID NO: 2-NH2, Ac-SEQ ID NO: 3-NH2 or Ferulic acid-SEQ ID NO: 2-NH2). The ABTS.+ has a blue-green color, with maximum absorptions at 650, 734 and 820 nm. Antioxidants in the sample reduce ABTS.+ suppressing this color production to a degree that is proportional to their concentrations and antioxidant capacity. Quantification of absorbance was conducted at 734 nm using a Polarstar Omega equipment (BMG Labtech).

[2] = test system: Primary human epidermal keratinocytes; assay: Protection against oxidative stress (reactive oxygen species) induced by hydrogen peroxide; assay type: cell-based; conditions: all concentrations tested
Procedure: Columns from left to right in the x-axis of FIG. 4(A) correspond to: basal state (cells to which no treatment is applied), positive control, negative control of oxidation (sample treated with 1 mM ascorbic acid) and treatments with Ac-SEQ ID NO: 1-NH2 concentrations of 0.001 mg/ml, 0.005 mg/ml and 0.01 mg/ml, respectively. […] Columns from left to right in the x-axis of FIG. 3(B) correspond to: basal state (cells to which no treatment is applied), positive control, negative control (sample treated with 1 mM ascorbic acid) and treatments with Ac-SEQ ID NO: 2-NH2 concentrations of 0.001 mg/ml, 0.005 mg/ml, 0.01 mg/ml and 0.05 mg/ml, respectively.
Primary human epidermal keratinocytes were seeded in black 96 well-plates in the corresponding culture medium and, 48 hours later, treated with the different compounds analysed (Ac-SEQ ID NO: 1-NH2 or Ac-SEQ ID NO: 2-NH2) for 3 hours at 37° C. or with ascorbic acid as an antioxidant control. After incubation, cells were loaded with a fluorescence probe for 45 minutes and then H2O2 was added for 30 minutes.
Finally, fluorescence was determined at Excitation 485 nm/Emission 520 nm.

[3] = test system: Primary human epidermal keratinocytes; assay: Protection against glycation induced by heavy metals (Advanced Glycation End products, competitive ELISA); assay type: cell-based; conditions: all concentrations tested (0.01, 0.05, 0.1 mg/ml), 48 hours
Procedure: Primary human epidermal keratinocytes were seeded in 96-well plates in standard culture medium and, 24 hours later, subjected to a simultaneous treatment with heavy metals (containing a mixture of Fe, Pb and Cr) and peptide Ac-SEQ ID NO: 1-NH2 for 48 hours. Levels of Advance Glycation End (AGE) products were measured by means of a competitive ELISA assay with absorbance at 450 nm.

HEKa cells = assay: Modulation of the expression of antioxidant genes (RTqPCR); assay type: cell-based, human; conditions: 0.05 mg/mL, 24 hours
Excerpt: Changes in gene expression levels are represented as a positive or negative fold-change with regard to the basal control (untreated cells). Bars from top to bottom in the y-axis refer to: CYP2R1 (Vitamin D 25-hydroxylase), NFE2L2 (Nuclear factor-like 2), HMOX1 (Heme oxygenase-1), GSTP1 (Glutathione S-transferase P), GSS (Glutathione synthetase), GPX1 (Glutathione peroxidase) and TRX (Thioredoxin). The x-axis refers to fold change versus or with regard to the basal control.
Briefly, HEKa cells were seeded in duplicate in 6-well plates at a density of 4×10^5 cells/well and maintained at standard culture conditions (37° C., 95% humidity, 5% CO2) for 24 hours. Then, cells were treated with non-cytotoxic concentrations of Ac-SEQ ID NO: 1-NH2 (0.05 mg/mL) for an additional 24 hours.
Untreated cells were used as basal control. Cells were then lysed for RNA extraction with a RNA purification commercial kit following manufacturer instructions (RNeasy mini kit; Qiagen; Netherlands). RNA was then quantified by nanodrop, adjusted in concentration and processed for retrotranscription to cDNA using a commercially available kit (High-Capacity cDNA Reverse Transcription kit; Thermofisher Scientific, USA). Resulting cDNA was used to perform a RTqPCR (Real Time Quantitative Polymerase Chain Reaction) using Taqman technology and a panel of probes designed to target specific genes related to melanogenesis and HEMn-HEKa and HEMn-HDFa communication.

[4] = test system: Primary human epidermal melanocytes; assay: Brightening activity: intracellular melanin content; assay type: cell-based; conditions: 7 days, kojic acid 10 and 50 μM
Procedure: Two concentrations of kojic acid were used as positive control.
Kojic acid was used as positive control.
Primary human epidermal melanocytes were incubated in 6-well plates for 4 days and then treated with the compounds to be analysed (Ac-SEQ ID NO: 1-NH2, Ac-SEQ ID NO: 2-NH2, Ac-SEQ ID NO: 3-NH2 or Ferulic acid-SEQ ID NO: 2-NH2) for 7 days. After treatment, cells were homogenized an intracellular melanin content was quantified by absorbance at 450 nm by Multiskan FC (Thermo Fisher Scientific, MA, USA).

CYP2R1 gene expression, fold change versus basal control (HEKa cells): 1.44 fold change
Compound: CC(=O)N[C@@H](CC(=O)O)C(=O)N[C@@H](Cc1ccc(O)cc1)C(=O)N[C@@H](CCCCN)C(=O)N[C@H](C(N)=O)C(C)C [Ac-SEQ ID NO: 1-NH2, Ac-Asp-Tyr-Lys-Val-NH2] (Ac-DYKV-NH2)
trolox equivalents ([1]; 0.01 mg/mL): 15 µM
trolox equivalents ([1]; 0.05 mg/mL): 24 µM
trolox equivalents ([1]; 0.1 mg/mL): 94 µM
activity against hydrogen peroxide induced reactive oxygen species compared with Ac-SEQ ID NO: 2-NH2 [2]: increased activity in all concentrations tested
quantity of advanced glycation end-products [3]: statistically significant decrease
GPX1 gene expression, fold change versus basal control (HEKa cells): 1.22 fold change
GSS gene expression, fold change versus basal control (HEKa cells): 1.10 fold change
GSTP1 gene expression, fold change versus basal control (HEKa cells): 1.13 fold change
HMOX1 gene expression, fold change versus basal control (HEKa cells): 1.48 fold change
NFE2L2 gene expression, fold change versus basal control (HEKa cells): 1.23 fold change
TRX gene expression, fold change versus basal control (HEKa cells): 1.34 fold change
brightening or whitening activity compared with kojic acid ([4]; all the concentrations tested (0.01, 0.05, 0.1 mg/ml)): significantly higher brightening or whitening activity
increased brightening activity relative to the activity of the two concentrations of kojic acid ([4]; all the concentrations tested): two to more than four times
